Data as given in paper PMC11187542, “Identification of fragments targeting SMYD3 using highly sensitive kinetic and multiplexed biosensor-based screening” (RSC Medicinal Chemistry, 2024).

Columns and labels:
[1] = target: T1, SMYD3 in complex with active site-specific tight-binding inhibitor EPZ031686 (Homo sapiens, UniProt Q9H7B4); assay: GCI biosensor kinetic screening, active site blocked SMYD3 surface; settings: for LE (ligand efficiency): LE = −RT ln(KD)/n, blocked SMYD3 surface; for Kd / kd / kon at 250 µM: initial kinetic screening, fragment 250 μM, 15 °C; for Kd: SMYD3 blocked by EPZ031686; for kd / kon at 250 µM: SMYD3 blocked by EPZ031686, 1:1 model; for kon at 250 µM: read-out: ka
T1 construct: Full length recombinant SMYD3 was produced as previously reported; made in house; host or cells: E. coli BL21(DE3), in some cases Rosetta 2
T1 sequence (Q9H7B4 1-428): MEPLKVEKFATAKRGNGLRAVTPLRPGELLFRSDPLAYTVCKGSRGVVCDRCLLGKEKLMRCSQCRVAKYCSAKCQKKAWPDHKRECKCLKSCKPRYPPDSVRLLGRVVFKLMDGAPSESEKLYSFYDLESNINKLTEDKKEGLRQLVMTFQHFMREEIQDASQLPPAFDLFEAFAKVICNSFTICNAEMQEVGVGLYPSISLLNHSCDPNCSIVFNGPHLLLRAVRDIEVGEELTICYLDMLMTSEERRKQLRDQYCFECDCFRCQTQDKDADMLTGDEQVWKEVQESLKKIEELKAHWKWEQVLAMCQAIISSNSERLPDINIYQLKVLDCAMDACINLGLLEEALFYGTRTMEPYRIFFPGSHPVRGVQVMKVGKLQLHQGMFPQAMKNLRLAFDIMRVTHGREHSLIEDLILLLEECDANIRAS
Source text: (§1) A multiplexed screening assay was set up with three different SMYD3 surfaces and a blank reference surface in flow channels 1–4 (FC1–FC4) (Fig. 2a), as described previously.[5] The apo SMYD3 surface detected fragments interacting anywhere on SMYD3, while a SMYD3 surface blocked by active site-specific tight-binding inhibitor EPZ031686 detected compounds binding elsewhere. The denatured surface served as a reference, detecting fragments binding to unfolded proteins, also potentially present to a significant degree in the other two surfaces.
(§2) The library was screened using the approach described in Fig. 1, i.e. injection of fragments at 250 μM for increasing durations of time in a single cycle, using a flow rate of 100 μL min^−1, data acquisition set to 40 Hz and with an association time of 5 s and dissociation of 20 s. Each fragment was addressed to all four channels and interactions with the native and blocked surfaces compared. The experimental conditions were chosen to ensure that the assay could reliably characterize the fast and transient interactions expected from typical fragments.
(§3) The kinetic screening of 1056 compounds was successfully completed in 72 hours. […] Hits were identified with full kinetic information using dissociation phases.
(§4) All interaction kinetic experiments were conducted with a GCI–flow-based biosensor (WAVEdelta, Creoptix AG/Malvern Panalytical) and PCH WAVEchip (Creoptix AG/Malvern Panalytical) sensor chips. The sensor chips were conditioned using injections of borate buffer (10 mM sodium tetraborate pH 8.5, 1 M NaCl). The running buffer composition, if not otherwise stated, was TBS buffer (50 mM Tris, 150 mM NaCl, 0.5 mM TCEP, 0.05% Tween 20, 1% DMSO, pH 8). SMYD3 was diluted to the desired concentration in 10 mM bis-Tris (pH 7.0) and amine coupled to the sensor surface of the PCH sensor chip. The sensor chip was functionalized at 25 °C by immobilising SMYD3 with EDC and NHS (Xantec) using an injection time of 420 s and a flow rate of 10 μL min^−1. The immobilisation levels ranged from 5000 pg mm^−2 to 18 500 pg mm^−2 surface mass to enable analysis of fragments spanning a broad range of affinities. After immobilization, the surface was deactivated with a running buffer containing 50 mM Tris for 420 s. The GCI data referencing and analysis were performed using WAVEcontrol V4.5 (Creoptix AG).
(§5) Kinetic measurements with controls and fragments were performed at 15 °C. Analysis of controls and follow up of hits was done using the multi cycle kinetic (MCK) injection of a concentration series for the same time, with a two-fold serial dilution starting at 250 μM for each compound. Solvent correction was performed ranging from 0.5–1.8% DMSO. Blank samples of the running buffer, 1× TBS (50 mM Tris, 150 mM NaCl, 0.5 mM TCEP, 0.05% Tween 20, 1% DMSO, pH 8), were injected during the measurements every fifth cycle. The experimental design illustrated in Fig. 1 was used for the screening against all four surfaces. The sensorgrams were adjusted to account for solvent correction and blank subtraction. Kinetic fitting was performed with the Direct Kinetics engine of WAVEcontrol software V4.5 (Creoptix AG) with a suitable fitting model.

SMYD3 [2] = target: T2, SMYD3 (Homo sapiens, UniProt Q9H7B4); assay: X-ray crystallography of SMYD3-fragment complexes (co-crystallization and soaking); parameters: key to XRC: success or failure of crystallization in complex with SMYD3: The success (+) or failure (−) of crystallization in complex with SMYD3; The success (+) or failure (−) of crystallization in complex with SMYD3; settings: 5 mM fragment co-crystallization or soaking
T2 construct: Full length recombinant SMYD3 was produced as previously reported; made in house; host or cells: E. coli BL21(DE3), in some cases Rosetta 2
T2 sequence (Q9H7B4 1-428): T1 sequence (Q9H7B4 1-428)
Source text: To identify binding sites and binding modes, the fragment hits (Table 1) were used in both co-crystallization and soaking experiments to obtain SMYD3-fragment co-crystals for X-ray crystallographic analyses. Diffraction data of 1.6–1.9 Å maximum resolution were obtained for four fragments (Fig. 5). For data collection and refinement statistics, see ESI, ^† Table S1.
Four new sites were thus identified.
Polder (F0–Fc) maps (Fig. 5, right) were generated to establish whether the observed electron density features were more likely to represent background noise or to belong to bound fragments. These omit maps are generated upon exclusion of the ligand and surrounding solvent from the model, which aids in visualizing weak densities. […] For fragments FL01507, FL08580 and FL08619, a comparison of the maps obtained after refinement with a bound fragment with maps obtained upon their replacement with either glycerol or acetate, which were present in the crystallization or cryo-protectant solutions, respectively, was required.
8 mg mL^−1 of SMYD3 in storage buffer (TBS buffer containing 2 mM DTT) was pre-incubated for 4–8 hours with 5 mM of a respective fragment hit compound and 10% (v/v) DMSO. Subsequently, 1 μL of this solution was mixed with an equal volume of reservoir solution (100 mM Tris, 100 mM magnesium acetate, 15–17% PEG3350, pH 8.25–8.75) to create the drops for co-crystallization by hanging drop vapour diffusion performed at 20 °C. Needle-like co-crystals nucleated within 12 h of equilibration against the reservoir. In addition, crystals of SMYD3 obtained in ligand-free crystallization setups were soaked with fragment solution prior to freezing. All crystals were cryo-protected via brief immersion in reservoir solution supplemented with 10% (v/v) glycerol.
Diffraction data were collected at beamline ID23-1 of the European Synchrotron Radiation Facility (ESRF, Grenoble, France). Data were indexed, auto-processed, scaled and merged on-site using the implemented data processing routines and software. Fragment-associated electron density features were identified upon data analysis with the Pipedream system (version 1.4.0, Global Phasing Ltd, Cambridge, United Kingdom), which includes data processing with autoPROC,[14] molecular replacement with Phaser,[15] structure refinement with BUSTER version 2.10.4 (Global Phasing Ltd, Cambridge, United Kingdom), automated ligand fitting with Rhofit (Global Phasing Ltd, Cambridge, United Kingdom) and BUSTER post-refinement.[16] Refinement was done with Phenix,[17] and model building with Coot.[18] (F0–Fc) difference density maps for models, from which ligand atoms and surrounding water molecules were removed, were generated using Phenix.

SMYD3 (apo, native) = target: T3, SMYD3 (apo, native) (Homo sapiens, UniProt Q9H7B4); assay: GCI biosensor kinetic screening, apo SMYD3 surface; type: binding; settings: for LE (ligand efficiency): LE = −RT ln(KD)/n; for Kd / kd / kon at 250 µM: initial kinetic screening, fragment 250 μM, 15 °C; for kd / kon at 250 µM: 1:1 model; for kon at 250 µM: read-out: ka
T3 construct: Full length recombinant SMYD3 was produced as previously reported; made in house; host or cells: E. coli BL21(DE3), in some cases Rosetta 2
T3 sequence (Q9H7B4 1-428): T1 sequence (Q9H7B4 1-428)
Source text: as §1
After preparing the sensor surface and immobilising SMYD3, the functionality of the surface was assessed via analysis of interactions with the co-factor product S-adenosyl-homocysteine (SAH). It was used as a control in all experiments, confirming that sensor surfaces were intact. This was done using the novel multiple injection-based experimental design (Fig. 1) at 25 μM, i.e. in a weak binder mode (Fig. 2b).
as §2, §3, §4, §5

SMYD3 [3] = target: T2, SMYD3; assay: GCI biosensor multi cycle kinetic confirmation of hits; type: binding; settings: two-fold serial dilution starting at 250 μM, 15 °C, global fit 1:1 model
Method: Selected screening hits were also re-tested by conventional multi cycle kinetic analysis in order to confirm the interactions (some compounds were no longer available). Two variants of the GCI biosensor assay were set up, using different immobilisation levels, to allow the confirmation of hits over a broad range of affinities. […] The kinetics varied for the selected hits (ESI, ^† Fig. S2). All hits were not confirmed (ESI, ^† Fig. S1b).
as §4, §5
FL06268 Superstoichiometric and
Figure 1. Examples of sensorgrams from multicycle kinetic experiments with initial fragment hits and SMYD3. A)
Fragments for which crystal structures of the complex with SMYD3 were obtained. A global fit of the sensorgrams
crystal structures were not obtained. […]

Structure (SMILES) | LE (ligand efficiency) [1] | Kd [1] [µM] | kd [1] [s⁻¹] | kon at 250 µM [1] [M⁻¹ s⁻¹] | XRC: success or failure of crystallization in complex with SMYD3 (SMYD3 [2]) | LE (ligand efficiency) (SMYD3 (apo, native)) | Kd (SMYD3 (apo, native)) [µM] | kd (SMYD3 (apo, native)) [s⁻¹] | kon at 250 µM (SMYD3 (apo, native)) [M⁻¹ s⁻¹] | Outcome of multicycle kinetic experiment (sensorgram assessment) (SMYD3 [3])
Oc1ccc2ccncc2c1 [FL01657] | 0.53 (kcal^-1 mol^-1)/HA | 56 | 1.09 | 19400 | (−) |  |  |  |  | 
O=C(O)c1ccnc2ccccc12 [FL02261] |  |  |  |  | (−) | 0.50 (kcal^-1 mol^-1)/HA | 17.4 | 1.09 | 62700 | 
COc1ccc(Br)cc1N [FL01938] | 0.53 (kcal^-1 mol^-1)/HA | 124 | 1.61 | 13000 | (−) |  |  |  |  | 
O=S(=O)(c1ccccc1)C1CCNC1 (stereo not shown) [FL08644] | 0.51 (kcal^-1 mol^-1)/HA | 5.6 | 0.42 | 75200 | (−) |  |  |  |  | 
Nc1ccnc(-c2cccnc2)n1 [FL08779] | 0.48 (kcal^-1 mol^-1)/HA | 25 | 1.07 | 41900 | (−) |  |  |  |  | 
NC(=O)c1cccc(O)c1 [FL08580] |  |  |  |  | (−) | 0.70 (kcal^-1 mol^-1)/HA | 7.84 | 0.93 | 118000 | 
O=C(O)c1cc(Br)c(O)c(Br)c1 [FL01775] | 0.48 (kcal^-1 mol^-1)/HA | 56 | 1.37 | 24400 | (−) |  |  |  |  | 
CC(C)c1nsc(N)n1 [FL01791] | 0.67 (kcal^-1 mol^-1)/HA | 37 | 1.46 | 39100 | (+) |  |  |  |  | 
COc1ccccc1C1OC(=O)CC1C(=O)O (stereo not shown) [FL03512] |  |  |  |  | (−) | 0.35 (kcal^-1 mol^-1)/HA | 38 | 1.61 | 42200 | 
N#Cc1cccc(O)c1 [FL01507] |  |  |  |  | (+) | 0.72 (kcal^-1 mol^-1)/HA | 17.9 | 1.3 | 72000 | Complex interaction
CC(C)(C)OC(=O)NC1CCC(CC(=O)O)CC1 (stereo not shown) [FL08758] | 0.32 (kcal^-1 mol^-1)/HA | 60 | 2.01 | 33300 | (−) |  |  |  |  | 
O=c1cc(C(F)(F)F)c2cc(Cl)c(O)cc2o1 [FL01677] |  |  |  |  | (−) | 0.35 (kcal^-1 mol^-1)/HA | 44.4 | 0.96 | 21600 | No binding
Nc1nc2cccnc2cc1Br [FL01891] |  |  |  |  | (−) | 0.52 (kcal^-1 mol^-1)/HA | 27.4 | 0.70 | 25900 | 
Nc1nnc(-c2cccnc2)s1 [FL08795] |  |  |  |  | (−) | 0.49 (kcal^-1 mol^-1)/HA | 51.3 | 2.04 | 39700 | 
COc1ccc(-n2ncc(C(=O)O)c2C)cc1 [FL01833] | 0.31 (kcal^-1 mol^-1)/HA | 149 | 1.46 | 9780 | (−) |  |  |  |  | 
N#Cc1cc(Br)ccc1O [FL01750] |  |  |  |  | (−) | 0.61 (kcal^-1 mol^-1)/HA | 31.6 | 0.93 | 29500 | No binding
Nc1ccc(S(N)(=O)=O)cc1 [FL04272] |  |  |  |  | (−) | 0.66 (kcal^-1 mol^-1)/HA | 4.4 | 0.68 | 150000 | 
